Source: US20110152176A1, “AGR-MEDIATED INHIBITION AND DISPERSAL OF BIOFILMS” (priority 2008, published 2011)
Ends that are not written are not given here.

Experiments:
extracellular proteases [1] = test: Protease activity of AIP-I detached biofilm effluent with inhibitors or activators (Azocoll); type: biochemical, Staphylococcus aureus; details: EGTA 1 mM, PMSF 10 mM (method: 200 mM), DTT 1 mM
Method: (§1) Monitoring protease activity. Milk agar plates for detection of protease activity consisted of 3 g/L Tryptic Soy broth, 20 g/L non-fat dry milk, and 15 g/L agar. To determine relative protease activities of strains, assays were performed as described previously using the Azocoll (Calbiochem) reagent (Fournier et al., 2001). For measuring protease levels in biofilm effluents, 100 mL of effluent was collected on ice (about 12 hours) after AIP addition to the biofilm medium. Cells were removed from the effluents through centrifugation and filtering, and ammonium sulfate was added to 60% over one hour at 4° C. to concentrate proteins. The precipitated proteins were pelleted by centrifugation at 19,000 rpm for 30 min, and the pellet was washed and resuspended in 1 ml with 10 mM Tris pH 7.5. For the protease assay, the reaction mixture was supplemented with either 1 mM EGTA, 200 mM PMSF, or 1 mM DTT to gauge relative levels of protease classes.
There are 10 known extracellular proteases produced by most S. aureus strains and expression of all these enzymes is controlled by the agr system (Novick, 2003; Dunman et al., 2001; Ziebandt et al., 2004). These 10 proteases include the metalloprotease aureolysin (aur), two cysteine proteases (scpA and sspB), and seven serine proteases (sspA (V8) and sp1ABCDEF) (Dubin, 2002). To elucidate what class(es) of proteases are prevalent in AIP-treated biofilms, the effluent from a detaching biofilm was assayed for protease activity in the presence of protease inhibitors or activating agents.

[2] = tested on: S. aureus SH1000 biofilm and detached bacteria; test: Susceptibility of biofilm and detached bacteria to rifampicin killing; type: cell-based, Staphylococcus aureus; details: six hours
Method: Antibiotic sensitivity. S. aureus biofilms were grown for two days in a flow chamber lined with removable polycarbonate coupons (Flow Cell FC271, Biosurface Technologies, Bozeman Mont.). Biofilm effluents were collected on ice about 24 hours after AIP-I addition. In parallel, coupons with biofilm growth were removed from flow cells not exposed to AIP-I. Both detached bacteria and the biofilms were exposed to the indicated levels of rifampicin for six hours. Subsequently, cells were vortexed, and the coupons were sonicated in a water bath to break up the biofilm or cell clumps. Serial dilutions were plated on TSA to determine surviving CFU's.
Detached S. aureus cells regain antibiotic sensitivity. Biofilm growth of S. aureus increases resistance to antimicrobials when compared to the planktonic growth mode (Fux et al., 2004; Yarwood et al., 2004). This Biofilm-mediated resistance hinders treatment of many chronic S. aureus biofilm related infections, including endocarditis, osteomyelitis, and indwelling medical device infections (Parsek and Singh, 2003; Costerton et al., 2003). Therefore, the inventors asked whether AIP-dispersed bacteria regained sensitivity to a clinically relevant antibiotic, rifampicin. To test this, the inventors collected detached cells from an AIP-treated biofilm effluent and compared resistance to intact biofilms exposed to different levels of rifampicin. […]

extracellular proteases [3] = test: Protease activity in biofilm effluents after AIP addition (Azocoll); type: cell-based, Staphylococcus aureus; details: for protease activity in biofilm effluent relative to biofilm without AIP: wild-type SH1000 biofilm supplemented with AIP
Method: as §1
If S. aureus proteases have a role in detachment, proteinase K should be able to disperse an established biofilm. […] With this preliminary observation, the inventors measured the levels of protease activity in effluents from biofilms with and without AIP-I addition using Azocoll (azo dye-impregnated collagen) reagent. […] With the addition of activating AIP-I, the protease activity increased approximately five-fold compared to a biofilm with no AIP-I treatment.

agr P3 promoter = test: agr P3-GFP reporter (pDB59) expression in flow cell biofilms; type: cell-based, Staphylococcus aureus
Method: Strains and growth conditions. The bacterial strains and plasmids used in this study are described in Table 1. S. aureus or Escherichia coli were grown in tryptic soy broth (TSB) or on tryptic soy agar (TSA) with the appropriate antibiotics for plasmid selection or maintenance (erythromycin […]; chloramphenicol 10 μg/ml; tetracycline 5 μg/ml) and incubated at 37° C. Plasmid DNA was prepared from E. coli and transformed by electroporation into S. aureus RN4220 as described (Schenk and Laddaga, 1992). Plasmids were moved from RN4220 into other S. aureus strains by transduction with bacteriophage a80 (Novick, 1991) or by purifying the plasmid DNA and transformed by electroporation into appropriate strains. To move sspA and sp1ABCDEF mutations into appropriate genetic backgrounds, phage transduction with a80 was used as described (Novick, 1991). To construct the Daur mutation, the pKOR1-aur plasmid was used as described (Kavanaugh et al., 2007). Fluorescence measurements with S. aureus strains containing pDB59 were performed as previously described (Malone et al., 2007).
(§2) Biofilm experiments. Microtiter plate biofilms were performed as described (Shanks et al., 2005) except that the plates were incubated at 37° C. with shaking at 200 rpm for 12 hours. For flow cell experiments, AIPs were generated using the DnaB intein method, and the AIP concentrations were determined as previously described (Malone et al., 2007). AIPs stocks (20 mM) were stored in 100 mM phosphate (pH 7), 50 mM NaC1, 1 mM tris(2-carboxyethyl) phosphine (TCEP) and were diluted into the biofilm flow medium to a final concentration of 50 nM. When required, […] of erythromycin and/or chloramphenicol were added to the flow cell media to maintain plasmids. […] Biofilm biomass was quantified with the COMSTAT program (Heydorn et al., 2000) and percent biomass detached was calculated by subtracting biomass present at day 4 from day 2. To quantitate the number of bacteria detaching from a biofilm, 1 ml of flow cell effluent was collected on ice at indicated time points. […]

S. aureus SH1000 biofilm = test: Flow cell biofilm detachment (CLSM, COMSTAT biomass, effluent CFU); type: cell-based, Staphylococcus aureus; details: for biomass detached: day 2 vs day 4
Method: Biofilm experiments. Microtiter plate biofilms were performed as described (Shanks et al., 2005) except that the plates were incubated at 37° C. with shaking at 200 rpm for 12 hours. For flow cell experiments, AIPs were generated using the DnaB intein method, and the AIP concentrations were determined as previously described (Malone et al., 2007). AIPs stocks (20 mM) were stored in 100 mM phosphate (pH 7), 50 mM NaC1, 1 mM tris(2-carboxyethyl) phosphine (TCEP) and were diluted into the biofilm flow medium to a final concentration of 50 nM. When required, […] of erythromycin and/or chloramphenicol were added to the flow cell media to maintain plasmids. The growth medium for flow cell biofilms consisted of 2% TSB plus 0.2% glucose unless otherwise indicated. Flow cell biofilm experiments and confocal microscopy were performed as previously described (Yarwood et al., 2004). Flow cells were inoculated with overnight cultures diluted 1:100 in sterile water and laminar flow ([…]) was initiated after one hour incubation. Confocal microscopy was performed using a Radiance 2100 system (Biorad) with a Nikon Eclipse E600 microscope. Confocal images were processed using Velocity software (Improvision, Lexington, Mass.). Biofilm biomass was quantified with the COMSTAT program (Heydorn et al., 2000) and percent biomass detached was calculated by subtracting biomass present at day 4 from day 2. To quantitate the number of bacteria detaching from a biofilm, 1 ml of flow cell effluent was collected on ice at indicated time points. The collected effluent was vortexed and sonicated in a water bath for 10 minutes to break up clumps, and serial dilutions were plated on TSA plates to determine colony forming units (CFUs). For the Proteinase K detachment experiments, the enzyme (Sigma-Aldrich) was suspended in water and added to the media reservoir at a final concentration of 2 mg/ml.
AIP detaches S. aureus biofilms. To investigate the role of the agr system in established biofilms, the inventors developed strategies to modulate level of agr activity within a biofilm. Initially, media supplementation experiments were performed using purified AIP signal in order to place the agr system under external control. The inventors recently developed a new method for AIP biosynthesis (Malone et al., 2007), enabling the production of sufficient signal levels for flow cell experiments. Through exogenous AIP addition, they could test wild-type strains and avoid any potential complications of constructed agr deletion mutants. For this approach, established flow cell biofilms were prepared using S. aureus SH1000 constitutively expressing RFP with plasmid pAH9. The flow cell media was supplemented with glucose to attenuate agr expression (Regassa et al., 1992), allowing cell attachment and biofilmdevelopment. After two days, either 1 mL of buffer (100 mM phosphate [pH 7], 50 mMNaCl, 1 mMTCEP; FIG. 2A) or 1 mL of […] in buffer (FIG. 2B and Video S1) was diluted 1000-fold (50 nM final concentration) into the growth media. Using the inventors' synthesized AIP-I in dose-response curves (Malone et al., 2007), the inventors estimate the amount of AIP-I in supernatants of TSB broth cultures (OD600 1.0-1.3) reaches approximately 400 nM (data not shown), indicating the 50 nM level used for the biofilm experiments is within a relevant concentration range. […] To confirm that AIP-I caused detachment, the inventors counted viable S. aureus cells in the effluent media (FIG. 2C). […] In contrast, the number of bacteria in the biofilm effluent without AIP-I addition remained relatively constant.

[4] = tested on: FRI1169 (agr Type I) biofilm; test: Flow cell biofilm detachment, agr-I strain; type: cell-based, Staphylococcus aureus; details: 2-day old biofilm, 50 nM cognate AIP, over 48 hours
Method: as §2, with “plasmids. The growth medium for flow cell biofilms consisted of 2% TSB plus 0.2% glucose unless otherwise indicated. Flow cell biofilm experiments and confocal microscopy were performed as previously described (Yarwood et al., 2004). Flow cells were inoculated with overnight cultures diluted 1:100 in sterile water and laminar flow ([…]) was initiated after one hour incubation.” for “plasmids.”

[5] = tested on: SA502a (agr Type II) biofilm; test: Flow cell biofilm detachment, agr-II strain; type: cell-based, Staphylococcus aureus; details: 2-day old biofilm, 50 nM cognate AIP, over 48 hours
Method: as §2, with “plasmids. The growth medium for flow cell biofilms consisted of 2% TSB plus 0.2% glucose unless otherwise indicated. Flow cell biofilm experiments and confocal microscopy were performed as previously described (Yarwood et al., 2004). Flow cells were inoculated with overnight cultures diluted 1:100 in sterile water and laminar flow ([…]) was initiated after one hour incubation.” for “plasmids.”

[6] = dual-labeled SH1000 (agr type I) biofilm, 50 nM AIP after two days of growth
[7] = wild-type SH1000 2-day flow cell biofilm, 50 nM AIP in growth media

Compound: O[C@@H](CS)[C@@H](O)CS [DTT]
- effect on overall protease activity of effluent (extracellular proteases [1]): did not significantly change protease activity

Compound: CO[C@H]1/C=C/O[C@@]2(C)Oc3c(C)c(O)c4c(O)c(c(/C=N/N5CCN(C)CC5)c(O)c4c3C2=O)NC(=O)/C(C)=C\C=C\[C@H](C)[C@H](O)[C@@H](C)[C@@H](O)[C@@H](C)[C@H](OC(C)=O)[C@@H]1C [rifampicin]
- decrease of viable cells ([2]; cells detached by AIP-I, 10 mg/ml rifampicin): 6 log
- level of rifampicin killing of the biofilm biomass ([2]; intact biofilm, 100 mg/ml rifampicin): about 2 log units

Compound: O=C(O)CN(CCOCCOCCN(CC(=O)O)CC(=O)O)CC(=O)O [EGTA]
- effect on overall protease activity of effluent (extracellular proteases [1]): negligible effect

Compound: AIP-I: autoinducing peptide YSTCDFIM (SEQ ID NO: 1), thiolactone bridge between C-terminal residue and internal cysteine (ester (positions not given here); not fully specified (bridges))
- protease activity in biofilm effluent (extracellular proteases [3]; agr mutant (SH1001) biofilm supplemented with AIP-I): very low levels of extracellular proteases
- protease activity in biofilm effluent relative to biofilm without AIP (extracellular proteases [3]): approximately five-fold
- induction of agr P3-GFP reporter (agr P3 promoter; agr deletion mutant (SH1001) biofilm with dual reporters, AIP-I): lack of GFP induction
- induction of agr P3-GFP reporter (agr P3 promoter; [6]): strong induction of the GFP reporter
- concentration of bacteria in the effluent (CFU/ml) (S. aureus SH1000 biofilm; 24-36 hours after AIP-I addition (50 nM), versus buffer): increased markedly
- biofilm detachment observed by CLSM (S. aureus SH1000 biofilm; agr deletion mutant (SH1001) biofilm, AIP-I treatment): the mutant biofilm did not disperse
- biofilm detachment observed by CLSM (S. aureus SH1000 biofilm; [7]): sloughed off the flow cell over a period of 1-2 days
- biomass dispersed / detached (S. aureus SH1000 biofilm; wild-type SH1000, 50 nM AIP-I added to 2-day biofilm, within 48 hrs (day 2 vs day 4), COMSTAT): 91.3 (64.3) %
- biomass detached (S. aureus SH1000 biofilm; Δaur mutant biofilm, 50 nM AIP-I): 54.6% (68.1)
- biomass detached (S. aureus SH1000 biofilm; Δaur Δspl double mutant biofilm, 50 nM AIP-I): 21.7% (66.6)
- biofilm detachment observed by CLSM [4]: robust detachment

Compound: O=S(=O)(F)Cc1ccccc1 [PMSF, reference compound]
- effect on AIP-I mediated biofilm detachment (S. aureus SH1000 biofilm; 10 mM PMSF in combination with AIP-I versus AIP-I alone): significantly reduced the level of detachment
- biomass detached (S. aureus SH1000 biofilm; wild-type biofilm, 10 mM PMSF in combination with 50 nM AIP-I): 48.8% (65.2)
- effect on overall protease activity of effluent (extracellular proteases [1]): reduced overall protease activity to almost undetectable levels

Compound: AIP-II: autoinducing peptide GVNACSSLF (SEQ ID NO: 2), thiolactone bridge between C-terminal residue and internal cysteine (ester (positions not given here); not fully specified (bridges))
- protease activity in biofilm effluent relative to biofilm without AIP (extracellular proteases [3]): reduced the level of proteolytic activity
- induction of agr P3-GFP reporter (agr P3 promoter; [6]): failed to induce GFP expression
- biofilm detachment observed by CLSM [5]: robust detachment
- biofilm detachment observed by CLSM (S. aureus SH1000 biofilm; [7]): the biofilm did not disperse
